Reference: patent US20100022541A1, “Chemical inhibitors of bacterial heptose synthesis, methods for their preparation and biological applications of said inhibitors” (priority 2006, published 2010)

Each molecule was assayed against T1, RfaE (Escherichia coli, UniProt P76658) (assay: Inhibition of the enzymatic activity of RfaE (HTS luminescent or fluorescent biochemical assay)). Settings: inhibitor tested at 6 to 10 concentrations; 30 min pre-incubation at room temperature.
T1 construct: made in house; host or cells: E. coli
Parameters: species or system E. coli
Description: According to another object, the invention also relates to a method for assessing RfaE enzymatic activity. • Said method comprises • pre-incubating at room temperature • DMSO or inhibitor to be tested dissolved in DMSO and RfaE in an assay buffer • and either • adding a reaction mixture composed of RfaE, β-heptose-7-phosphate, ATP, in the assay buffer and incubating at room temperature • adding a revelation mixture composed of luciferase, D-luciferin and N-acetylcysteamine • measuring the luminescence intensity and converting into inhibition % to further calculate the IC50 values; • or • adding a reaction mixture composed of RfaE, β-heptose-7-phosphate ATP, pyruvate kinase, phosphoenolpyruvate, lactate dehydrogenase and NADH in said assay buffer, • measuring the fluorescence intensity of NADH kinetically and deriving inhibition % from fitted initial velocities, to further calculate the IC50 values.
Inhibition of the Enzymatic Activity of RfaE
RfaE is a kinase belonging to the ribokinase family. It catalyses an essential step of the biosynthesis of L-ADP-Heptose, namely the phosphorylation of β-heptose-7-phosphate (H7P) into β-heptose-1,7-bisphosphate (H17P). RfaE assays as described in the literature are essentially based on direct HLPC detection of the substrates H7P and ATP, and of the products H17P and ADP, raising obvious limitations for HTS applications. The assays described below are based either on luminescent ATP detection, or on fluorescent ADP detection. They are easily amenable to miniaturized formats and fast readouts as required by HTS.
The assay buffer “AB” contains 50 mM Hepes pH7.5, 1 mM MnCl2, 25 mM KCl, 0.012% Triton-X100 and 1 mM DTT. The following components are added in a white polystyrene Costar plate up to a final volume of 31 μL: 3 μL DMSO, or inhibitor dissolved in DMSO and 28 μL RfaE in AB. After 30 min of pre-incubation at room temperature, 29 μL of Substrates mix in AB are added in each well to a final volume of 60 μL. This reaction mixture is then composed of 3 nM RfaE (produced in house from E. coli), 0.2 μM β-heptose-7-phosphate (in house synthesis) and 0.2 μM ATP (Sigma) in assay buffer. After 40 min of incubation at room temperature, 200 μL of the revelation mix are added to a final volume of 260 μL, including the following constituents at the respective final concentrations: 2 nM luciferase (Sigma), 30 μM D-luciferin (Sigma), 100 μM N-acetylcysteamine (Aldrich). Luminescence intensity is immediately measured on an Analyst-HT (Molecular Devices) and converted into inhibition percentages. For IC50 determinations, the inhibitor is tested at 6 to 10 different concentrations, and the related inhibitions are fitted to a classical langmuir equilibrium model using XLFIT (IDBS).
The assay buffer “AB” contains 50 mM Hepes pH7.5, 1 mM MnCl2, 25 mM KCl, 0.012% Triton-X100 and 1 mM DTT. The following components are added in a black polystyrene Costar plate up to a final volume of 50 μL: 5 μL DMSO, or inhibitor dissolved in DMSO and 45 μL RfaE in AB. After 30 min of pre-incubation at room temperature, 50 μL of Substrates-revelation mix in AB are added in each well to a final volume of 100 μL. This reaction mixture is then composed of 66 μM RfaE (produced in house from E. coli), 1 μM β-heptose-7-phosphate (in house synthesis), 50 μM ATP (Sigma), 5 u/mL Pyruvate Kinase (Sigma), 50 μM phosphoenolpyruvate (Sigma), 5 u/mL Lactate dehydrogenase (Sigma) and 2.5 μM NADH (Sigma) in assay buffer. Fluorescence intensity of NADH (λex=360 nm, λem=520 nm) is immediately measured kinetically by a Fluostar Optima (BMG). Inhibition percentages are derived from fitted initial velocities. For IC50 determinations, the inhibitor is tested at 6 to 10 different concentrations, and the related inhibitions are fitted to a classical langmuir equilibrium model using XLFIT (IDBS).

T1 sequence (P76658 whole entry): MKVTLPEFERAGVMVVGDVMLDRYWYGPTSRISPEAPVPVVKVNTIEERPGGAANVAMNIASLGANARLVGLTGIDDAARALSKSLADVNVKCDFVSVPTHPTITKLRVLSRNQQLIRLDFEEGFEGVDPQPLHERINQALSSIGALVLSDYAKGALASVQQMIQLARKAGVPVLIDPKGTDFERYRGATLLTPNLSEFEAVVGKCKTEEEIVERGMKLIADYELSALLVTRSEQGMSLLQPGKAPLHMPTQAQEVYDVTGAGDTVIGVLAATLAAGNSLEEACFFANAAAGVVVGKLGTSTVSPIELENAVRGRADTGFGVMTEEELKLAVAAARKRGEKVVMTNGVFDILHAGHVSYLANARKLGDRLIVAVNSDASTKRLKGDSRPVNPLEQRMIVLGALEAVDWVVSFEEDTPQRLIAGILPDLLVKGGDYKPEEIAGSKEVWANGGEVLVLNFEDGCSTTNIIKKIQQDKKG

SMILES	IC50 [µM]
Cc1oc(-c2ccccc2)cc1C(=O)N(CC(=O)O)Cc1ccccn1 [Example X, [(2-methyl-5-phenyl-3-furoyl)(pyridin-2-ylmethyl)amino]acetic Acid]	42
O=C(O)CN(Cc1ccccn1)C(=O)c1nc(-c2ccccc2)oc1C(F)(F)F [XIII, [{[2-phenyl-5-(trifluoromethyl)-1,3-oxazol-4-yl]carbonyl}(pyridin-2-ylmethyl)amino]acetic Acid]	80
Cn1nc(-c2ccccc2)cc1C(=O)N(CC(=O)O)Cc1ccccn1 [VIII, [[(1-methyl-3-phenyl-1H-pyrazol-5-yl)carbonyl](pyridin-2-ylmethyl)amino]acetic Acid]	57
Cc1nc(-c2ccccc2)oc1C(=O)N(CC(=O)O)Cc1ccc(-c2ccccc2F)o1 [XXXII, ([(4-methyl-2-phenyl-1,3-oxazol-5-yl)carbonyl]{[5-(2-fluorophenyl)-2-furyl]methyl}amino)acetic Acid]	125
CC(=O)c1cccc(-c2nc(C)c(C(=O)N(CC(=O)O)Cc3ccccn3)s2)c1 [XXXVI, [{[2-(3-acetylphenyl)-4-methyl-1,3-thiazol-5-yl]carbonyl}(pyridin-2-ylmethyl)amino]acetic Acid]	216
COc1cccc(-c2nc(C(=O)N(CC(=O)O)Cc3ccc4ccccc4n3)c(C)o2)c1 [XXXIV, [{[2-(3-methoxyphenyl)-5-methyl-1,3-oxazol-4-yl]carbonyl}(quinolin-2-ylmethyl)amino]acetic Acid]	12
O=C(O)CN(Cc1ccccn1)C(=O)c1nc(-c2ccccc2)oc1COCc1ccccc1 [I, {[[5-(benzyloxy)methyl-2-phenyl-1,3-oxazol-4-yl]carbonyl](pyridin-2-ylmethyl)amino}acetic Acid]	265
Cc1oc(-c2cccc(O)c2)nc1C(=O)N(CC(=O)O)Cc1ccccn1 [XXV, [{[2-(3-hydroxyphenyl)-5-methyl-1,3-oxazol-4-yl]carbonyl}(pyridin-2-ylmethyl)amino]acetic Acid]	50
Cc1oc(-c2ccccc2Br)nc1C(=O)N(CC(=O)O)Cc1ccccn1 [XIX, [{[2-(2-bromophenyl)-5-methyl-1,3-oxazol-4-yl]carbonyl}(pyridin-2-ylmethyl)amino]acetic Acid]	44
COc1cccc(-c2nc(C)c(C(=O)N(CC(=O)O)C(C)c3ccccn3)o2)c1 (stereo not drawn) [XXXV, [{[2-(3-methoxyphenyl)-4-methyl-1,3-oxazol-5-yl]carbonyl}(1-pyridin-2-ylethyl)amino]acetic Acid]	19.2
Cc1oc(-c2ccccc2)nc1C(=O)N(CC(=O)O)Cc1ccccn1 [XII, [[(5-methyl-2-phenyl-1,3-oxazol-4-yl)carbonyl](pyridin-2-ylmethyl)amino]acetic Acid]	51
Cc1nc(-c2ccc3ccccc3c2)sc1C(=O)N(CC(=O)O)Cc1nc2ccccc2s1 [XLI, ((1,3-benzothiazol-2-ylmethyl){[4-methyl-2-(2-naphthyl)-1,3-thiazol-5-yl]carbonyl}amino)acetic Acid]	0.48
